In brackets after ≈: the same amount, converted by molar mass. Several values for one entry are separate records, joined by “and”; a condition that tells them apart may be missing. Identical values can stand only once.
Legend:
[1] = tested on: NO produced by mouse macrophages J774.2 cell line; assay: Nitrite accumulation in LPS-stimulated J774.2 macrophages (Griess method); assay type: cell-based; conditions: LPS-stimulated J774.2, 24 hours
Description: The mouse macrophage cell line J774.2 obtained from ECACC, Salisbury, Wiltshire (UK) was cultured in T75 flasks in complete DMEM containing 10% fetal bovine serum and supplemented with 1% streptomycin/penicillin. Flasks were kept at 37° C. in the atmosphere of humidified air containing 5% CO2. Cell were then seeded in 24 well (10^6 cells/mL) and nitric oxide synthase (NOS-2) in the macrophages was induced by addition of 20 μg/mL E. coli lipopolysaccharide (DIFCO Laboratories, Michigan, USA). The test compounds were added at a concentration of 25 μg/mL soon after LPS stimulation and incubated at 37° C. in 5% CO2. Cell culture supernatant was collected after 24 hours. Nitrite accumulation in J774.2 cell culture supernatant was measured using the Griess method, where 50 μL of 1% sulphanilamide in 2.5% phosphoric acid, followed by 50 μL of 0.1% naphtyl-ethylene diamine dihydrochloride in 2.5% phosphoric acid were added to 50 μL culture medium. After 10 minutes of incubation at room temperature the absorbance at 550 nm was read. Micromolar concentrations of nitrite were calculated from standard curve constructed with sodium nitrite a reference compound. The results were expressed as means±SD of duplicate readings.

[2] = tested on: ROS produced by human blood phagocytes; assay: Oxidative burst, luminol-enhanced chemiluminescence in whole blood; assay type: cell-based; conditions: serum opsonized zymosan
Description: Formation of the reactive oxygen species (ROS) in whole blood, during the oxidative burst was measured by the luminol-enhanced chemiluminescence assay. In brief, three concentrations of each compound (1.0, 10 and 100 μg/mL) were prepared in 25 μL of Hank's Balanced salt solution containing calcium chloride and magnesium sulfate (HBSS^++) in a half area 96-well white flat-bottomed plate (Sigma Aldrich, Steinheim, Germany) in a final volume of 100 μL. Then 25 μL of whole blood diluted 1:50 in suspension of HBSS^++ was added.
Positive and negative controls and blank wells were included. Cells and compounds were incubated for 30 minutes at 37° C., then 25 μL luminol [3-aminophthalhydrazide] (Research Organics Cleveland, Ohio, USA), were added into each well followed by 25 μL of serum opsonized zymosan (Saccharomyces cerevisiae origin) purchased from Fluka, Buchs (Switzerland) was added except for negative and blank wells. The ROS chemiluminescence kinetic was monitored with a luminometer from Labsystems (Helsinki, Finland), for 50 minutes in the repeated scan mode. Peak and total integral chemiluminescence readings were expressed in the relative light unit.

[3] = tested on: IL-2 production; assay: IL-2 production by PHA/PMA stimulated PBMCs (ELISA); assay type: cell-based, human
Description: The PBMCs were cultured in a 96-well flat-bottomed plate (1.0×10^5 cell/well) in the presence or absence of three concentrations of test compounds (1.0, 5.0 and 20 μg/mL), and phytohemagglutinin (PHA) phorbol myristate acetate (PMA) in a final concentration of 5 ng/mL and 20 ng/mL, respectively. After an incubation period of 18 h at 37° C. in a humidified atmosphere of 5% CO2 in air, the supernatant was collected for IL-2 determination. Interleukin-2 levels were measured by using enzyme-linked immunosorbent assay (ELISA) development kit (R&D systems, Minneapolis, Minn., USA). The assay was performed according to the manufacturer's instructions. Briefly, a 96-well flat-bottomed ELISA plate was coated with 4.0 μg/mL mouse anti-human IL-2, in PBS, pH 7.4. Then, re-combinant human IL-2 standards and culture supernatant samples were added and incubated for 2 h followed by washing steps and then the addition of biotinylated goat anti-human IL-2. After an incubation period of 2 h at room temperature, the plates were again washed and streptavidin conjugated horse raddish peroxidase was added and incubated for additional 20 min at room temperature. After the final washes, an enzyme substrate solution of H2O2 and tetra methyl benzidine (1:1 v/v) was added and the color was allowed to develop at room temperature in the dark. The plates were then read at 450 nm in a plate reader (DIAReader GMBH, Wr. Neudorf, Austria). The results were analyzed using Microsoft Excel.

[4] = tested on: IL-4 production; assay: IL-4 production by PHA stimulated PBMNCs (ELISA); assay type: cell-based, human; conditions: 18 h
Description: The PBMNCs were cultured in a 96-well flat-bottomed plate (2.0×10^6 cell/mL) in the presence or absence of three concentrations of test compounds (1.0, 5.0, and 25 μg/mL), and phytohemagglutinin (PHA) in a final concentration of 7.5 μg/mL. After an incubation period of 18 h at 37° C. in 5% CO2, supernatant was collected for IL-4 determination. Interleukin-4 levels were measured by using enzyme-linked immunosorbent assay (ELISA) kit (Diaclone, France). The assay was performed according to the manufacturer's instructions. Briefly, in a 96-well ELISA plate which was coated with monoclonal mouse anti-human IL-4, 100 μl recombinant human IL-4 standards and culture supernatants samples were added. The plates were incubated for 2 hours at room temperature and washed three times with wash buffer, followed by the addition of biotinylated goat anti-human IL-4 and further incubated for 1 hour at room temperature. The plates were again washed and streptavidin conjugated horse raddish peroxidase was added and incubated for an additional 20 minutes at room temperature. After three final washes, the enzyme substrate solution was added and incubated for 12 to 15 minutes to allow color development at room temperature in the dark. Then stop solution was added and the plates were read at 450 nm in a plate reader (DIAReader GMBH, Wr. Neudorf, Austria). The results were analyzed using Microsoft Excel.

[5] = tested on: T-cell proliferation; assay: T-cell proliferation assay (PHA-stimulated PBMNCs, 3H-thymidine incorporation); assay type: cell-based, human; parameters: unit not given here; conditions: PHA 5 μg/mL stimulated PBMNCs
Description: The diluted blood was then layered onto lymphocyte separation medium (MP Biomedicals, Inc., Ohio, USA) and centrifuged at 400 g for 20 min at 25° C. […] Plates were then incubated at 37° C. in a humidified atmosphere of 5% CO2 in air for 72 hours. To each well, 0.5 μCi [methyl ^3H]-thymidine (Amersham Place Little Chalfont, Buckinghamshire, UK) was added for an additional 18 hours. Cells were harvested using a cell harvester (Inotech, Dottikon, Switzerland), and incorporation and level of radioactivity was measured by a liquid scintillation counter (Beckman coulter, LS 6500, Fullerton, Calif., USA).

[6] = tested on: 3T3 NIH mouse embryo fibroblast cell line; assay: MTT cytotoxicity assay; conditions: for Cytotoxicity IC50: 3T3 NIH cells, 48 h; for interference with the growth of 3T3 cells: up to 20 μg/mL
Description: The 3T3-NIH cells were suspended in Dulbecco's Modified Eagle's Medium (DMEM) formulated with 10% FBS. Using flat bottomed plates, cells were plated at a concentration of 6×10^4 cells/mL and incubated for 24 h at 37° C. and 5% CO2 environment. […] Following exposure to each compound, cell viability was assessed by using 0.5 mg/mL of MTT {3-(4,5-dimethylthiazol-2-yl)-2,5-diphenyltetrazolium bromide for 4 h followed by the removal of supernatant and addition of DMSO to solubilize the formazan complex. The plates were read at 540 nm after one minute shaking and readings were processed using MS Excel software. The results were expressed as means±SD of triplicate readings.

[7] = tested on: NO produced by mouse macrophages J774.2 cell line; assay: Nitrite accumulation in LPS-stimulated J774.2 macrophages (Griess method); assay type: cell-based

Row | Structure (SMILES) | % of NO inhibited by 25 μg/mL of compound [1] [%] | IC50 (μg/mL) for phagocytes ROS [2] [µg/mL] | other results
1 | Fc1ccccc1-c1nc2ccccc2s1 [Compound 23] | 28.4 ± 2.5 | >100 | –
2 | Clc1ccc(-c2nc3ccccc3s2)c(Cl)c1 [Compound 11] | −7.4 ± 3.0 | >100 | –
3 | Oc1cccc(-c2nc3ccccc3s2)c1 [Compound 5] | 44.5 ± 0.3 | >100 | IC50 IL-2 production ([3]; PHA/PMA stimulated PBMCs, 18 h incubation): 6.0 µg/mL (≈ 26.4 µM); IC50 IL-4 production [4]: 8.9 ± 0.6 µg/mL (≈ 39.2 µM); IC50 T-cell proliferation [5]: 2.7±0.2; Cytotoxicity IC50 [6]: >20 µg/mL; interference with the growth of 3T3 cells [6]: did not interfere with the growth of 3T3 cells
4 | Clc1cccc(-c2nc3ccccc3s2)c1 [Compound 17] | 14.1 ± 3.0 | 81.0 ± 4.1 | –
5 | c1ccc2cc(-c3nc4ccccc4s3)ccc2c1 [Compound 3] | 20.5 ± 5.9 | >100 | –
6 | CN(C)c1ccc(-c2nc3ccccc3s2)cc1 [Compound 14] | 16.8 ± 0.8 | 11.8 ± 1.2 | Cytotoxicity IC50 [6]: >25 µg/mL; interference with the growth of 3T3 cells [6]: did not interfere with the growth of 3T3 cells
7 | c1cncc(-c2nc3ccccc3s2)c1 [Compound 19] | 11.7 ± 1.7 | >100 | –
8 | Oc1cccc(-c2nc3ccccc3s2)c1O [Compound 10] | 14.3 ± 1.0 | 1.1 ± 0.1 | IC50 T-cell proliferation [5]: 0.99±0.1; interference with the growth of 3T3 cells [6]: did not interfere with the growth of 3T3 cells
9 | Cc1ccc(-c2nc3ccccc3s2)cc1 [Compound 15] | 10.8 ± 2.4 | >100 | –
10 | c1csc(-c2nc3ccccc3s2)c1 [Compound 24] | 30.3 ± 0.3 | 14.4 ± 2.5 | Cytotoxicity IC50 [6]: >25 µg/mL; interference with the growth of 3T3 cells [6]: did not interfere with the growth of 3T3 cells
11 | Brc1ccc(-c2nc3ccccc3s2)cc1 [Compound 21] | 11.5 ± 2.7 | >100 | –
12 | CC(C)Cc1ccc(C(C)C(=O)O)cc1 (centres unmarked) [Ibuprofen, reference compound] | – | – | IC50 ([2]; read-out: IC50 (μg/mL) for phagocytes ROS): 11.8 ± 1.2 µg/mL
13 | Oc1ccc(-c2nc3ccccc3s2)c(O)c1 [Compound 13] | 32.7 ± 8.3 | 11.1 ± 0.9 | Cytotoxicity IC50 [6]: 11.5 ± 0.0 µg/mL; interference with the growth of 3T3 cells [6]: did not interfere with the growth of 3T3 cells
14 | c1ccc2sc(-c3ccncc3)nc2c1 [Compound 20] | 41.6 ± 4.7 | 15.5 ± 1.0 | Cytotoxicity IC50 [6]: >25 µg/mL
15 | CCOc1ccc(-c2nc3ccccc3s2)cc1 [Compound 22] | 23.5 ± 3.7 | >100 | –
16 | Clc1ccc(-c2nc3ccccc3s2)cc1 [Compound 25] | 20.6 ± 5.3 | >100 | –
17 | Clc1ccc(-c2nc3ccccc3s2)cc1Cl [Compound 26] | 35.7 ± 1.5 | >100 | –
18 | Oc1ccc(Cl)cc1-c1nc2ccccc2s1 [Compound 6] | 35.5 ± 7.4 | 34.3 ± 4.4 | –
19 | Cc1ccccc1-c1nc2ccccc2s1 [Compound 7] | 5.4 ± 2.8 | >100 | –
20 | COc1ccc(-c2nc3ccccc3s2)cc1OC [Compound 12] | −1.5 ± 0.6 | >100 | IC50 IL-4 production [4]: < 1.0 µg/mL; IC50 T-cell proliferation [5]: 1.0±0.1
21 | Oc1ccc(-c2nc3ccccc3s2)cc1O [Compound 9] | 58.5±3.3 | 3.7 ± 0.2 | IC50 NO production [7]: 12.6 ± 2.1 µg/mL (≈ 51.8 µM); IC50 T-cell proliferation [5]: 1.2±0.0; Cytotoxicity IC50 [6]: 11.1 µg/mL and 11.4 ± 1.8 µg/mL; interference with the growth of 3T3 cells [6]: did not interfere with the growth of 3T3 cells
22 | CCOc1cccc(-c2nc3ccccc3s2)c1O [Compound 1] | 26.5 ± 0.0 | >100 | –
23 | Oc1cc(O)c(-c2nc3ccccc3s2)cc1O [Compound 18] | 78.1±1.6 | >100 | IC50 ([3]; experimental IL-2 IC50 listed in Table 3): 1.1 µg/mL (≈ 4.24 µM); IC50 IL-4 production [4]: 8.0 ± 0.0 µg/mL (≈ 30.9 µM); IC50 T-cell proliferation [5]: 1.95±0.4; Cytotoxicity IC50 [6]: 10.4 µg/mL
24 | Oc1ccccc1-c1nc2ccccc2s1 [Compound 16] | 20.2 ± 1.5 | >100 | –
